In PMC2728155 (Molecular cancer therapeutics, 2009):
Where two headings read alike, the source gives them in different places.

Columns and labels:
murine sEH = molecular target: T1, murine sEH (Mus musculus, UniProt P34914); test: Fluorescent sEH inhibition assay
T1 sequence (P34914 1-554): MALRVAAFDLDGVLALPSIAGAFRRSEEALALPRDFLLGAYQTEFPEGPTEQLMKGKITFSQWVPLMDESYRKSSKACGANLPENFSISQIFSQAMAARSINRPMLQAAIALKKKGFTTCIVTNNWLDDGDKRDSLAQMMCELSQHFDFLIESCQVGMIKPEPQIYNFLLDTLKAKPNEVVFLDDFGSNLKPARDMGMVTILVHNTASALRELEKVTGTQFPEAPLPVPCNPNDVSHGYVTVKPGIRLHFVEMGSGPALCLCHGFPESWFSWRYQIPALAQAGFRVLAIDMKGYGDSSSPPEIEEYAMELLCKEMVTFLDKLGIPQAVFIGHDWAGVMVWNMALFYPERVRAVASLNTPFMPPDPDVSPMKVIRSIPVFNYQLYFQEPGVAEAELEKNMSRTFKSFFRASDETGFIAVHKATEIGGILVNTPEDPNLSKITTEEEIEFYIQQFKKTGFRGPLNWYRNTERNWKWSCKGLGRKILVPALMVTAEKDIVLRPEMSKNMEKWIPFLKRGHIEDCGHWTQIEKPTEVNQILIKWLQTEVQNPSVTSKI

human sEH [1] = molecular target: T2, human sEH (Homo sapiens, UniProt P34913); test: biochemical; assay type: biochemical
T2 sequence (P34913 1-555): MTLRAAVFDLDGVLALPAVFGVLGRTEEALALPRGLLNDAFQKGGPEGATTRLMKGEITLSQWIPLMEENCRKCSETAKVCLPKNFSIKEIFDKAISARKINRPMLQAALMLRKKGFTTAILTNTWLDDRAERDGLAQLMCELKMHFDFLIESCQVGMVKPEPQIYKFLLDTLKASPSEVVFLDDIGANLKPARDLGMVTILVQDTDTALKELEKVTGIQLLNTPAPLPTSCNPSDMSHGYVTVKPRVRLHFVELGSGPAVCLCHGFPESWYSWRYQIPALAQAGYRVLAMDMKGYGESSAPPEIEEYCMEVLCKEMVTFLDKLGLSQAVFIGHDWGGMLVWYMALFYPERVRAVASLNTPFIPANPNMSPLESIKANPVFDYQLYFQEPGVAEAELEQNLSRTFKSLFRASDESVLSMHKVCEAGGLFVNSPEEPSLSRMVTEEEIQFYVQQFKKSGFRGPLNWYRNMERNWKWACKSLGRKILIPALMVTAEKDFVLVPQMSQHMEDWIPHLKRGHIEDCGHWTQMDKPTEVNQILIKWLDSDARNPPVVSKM

[2] = test system: ERK phosphorylation in ACHN and A498 cells; test: Immunoblot of ERK phosphorylation after PDGF stimulation; assay type: cell-based, human; conditions: two RCC cell lines (ACHN, A498), 10 μM, 1 h, then PDGF 10 ng/ml 15 min
[3] = mice, sorafenib tosylate 5 mg/kg oral
[4] = test system: ACHN and A498 human RCC cells; test: MTT assay of cell growth; assay type: cell-based; conditions: 10 μM, 48 h
[5] = test system: caspase-1 and caspase-3 activity in ACHN and A498 cells; test: Caspase assay; assay type: cell-based, human; conditions: 10 μM, 48 h
[6] = man, phase I study, cited from earlier work
in vivo = conditions: male, Swiss-Webster, mouse, po, 5 mg/kg
human sEH [7] = molecular target: T2, human sEH; assay type: biochemical; conditions: read-out: Inhibition of the Human sEH KI; pH 7.4

## Cc1nc(Nc2ncc(C(=O)Nc3c(C)cccc3Cl)s2)cc(N2CCN(CCO)CC2)n1 [Dasatinib]
Murine sEH
  IC50: 27 µM

## CCN(CC)CCNC(=O)c1c(C)[nH]c(/C=C2\C(=O)Nc3ccc(F)cc32)c1C [Sunitinib]
Human sEH [1]
  IC50: 55 µM
Human sEH [1]; fluorescent assay
  Inhibition of the human sEH (in words): not potent inhibitors of the human sEH

## COc1cccc(-c2cc(=O)c3ccccc3o2)c1N [PD98059]
[2]
  ERK phosphorylation: attenuate ERK phosphorylation

## CNC(=O)c1cc(Oc2ccc(NC(=O)Nc3ccc(Cl)c(C(F)(F)F)c3)cc2)ccn1 [Sorafenib]
[2]
  ERK phosphorylation: attenuate ERK phosphorylation
[3]
  Blood level after 24 h: no sorafenib could be detected
[4]
  Decrease of cell growth as compared to serum-stimulated cells: 65-70%
[5]
  Apoptosis: caspase-1 and caspase-3 activity: activation of caspase-1 and caspase-3 activity
[6]; similar doses
  Cmax: > 1500 nM
[6]
  AUC0-12: more than 13000 nM h
  Elimination half life: more than 20 hours
  Tmax: more than 2 h
In vivo
  AUC(0-t): 0.63 µM·h
  Cmax: ~120 nM
  half-life: 2.6 h

## CS(=O)(=O)N1CCC(NC(=O)Nc2ccc(OC(F)(F)F)cc2)CC1 [TUPS]
Human sEH [1]; read-out: Inhibition of the Human sEH IC50, pH 7
  IC50: 0.003 ± 0.001 µM
Human sEH [7]
  Ki: 0.014 ± 0.004 µM
